Source: PMC9696794, “Synthesis and Antimicrobial Activity of Short Analogues of the Marine Antimicrobial Peptide Turgencin A: Effects of SAR Optimizations, Cys-Cys Cyclization and Lipopeptide Modifications” (International Journal of Molecular Sciences, 2022)
Where a SMILES comes first, the peptide text is derived from it. The star is where a group is joined. Lauroyl = CCCCCCCCCCCC(=O)*; Decanoyl = CCCCCCCCCC(=O)*; Octanoyl = CCCCCCCC(=O)*

How the values were obtained:
E. coli (Ec, ATCC 25922) = assay: microbe, parasite or virus in culture; format: cell-based, Escherichia coli; details: ATCC 25922, 24 h
Method: (§1) All cyclic and linear peptides were screened for antibacterial activity against four Gram-positive strains: B. subtilis (Bs, ATCC 23857), C. glutamicum (Cg, ATCC 13032), S. aureus (Sa, ATCC 9144) and S. epidermidis RP62A (Se, ATCC 35984), and two Gram-negative strains: E. coli (Ec, ATCC 25922) and P. aeruginosa (Pa, ATCC 27853). The activity was assessed using a broth microdilution assay according to a modified CLSI-based method. Briefly, overnight bacterial cultures were grown in Mueller–Hinton (MH) broth medium (Difco Laboratories, Detroit, MI, USA) for 2 h at room temperature. The optical density (OD600) was measured, and the bacterial suspensions were adjusted to 2.5–3 × 10^4 CFU/mL in MH medium. The bacterial suspension (50 µL) was distributed in 96-well plates (Nunc, Roskilde, Denmark) preloaded with two-fold dilution series (256 to 1 µg/mL) of peptide solutions (50 µL), giving a final well volume of 100 µL. The microplates were incubated in an EnVision 2103 microplate reader (PerkinElmer, Llantrisant, UK) at 35 °C, with OD595 recorded every hour for 24 h. MIC was defined as the lowest concentration of peptides showing an optical density less than 10% of the negative (growth) control, consisting of bacterial suspension and water. Polymyxin B sulfate (Sigma-Aldrich, St. Louis, MO, USA) and chlorhexidine acetate (CHX, Fresenius Kabi, Halden, Norway), both with concentrations ranging from 12.5 to 0.09 μg/mL, served as positive (growth inhibition) controls. All peptides were tested in triplicate.

[1] = system: fungi (A. pullulans, C. albicans, Rhodotorula sp.); assay: Antifungal MIC assay, all fungi together (range or geometric mean); format: cell-based; details: Table S3; MIC >128 set to 128
Method: (§2) The synthesized peptides were screened for antifungal activity against the molds A. pullulans (Ap) and Rhodotorula sp. (Rh) (both obtained from Professor Arne Tronsmo, The Norwegian University of Life Sciences, Ås, Norway) and the yeast C. albicans (Ca, ATCC 10231) as previously described. In short, fungal spores were grown in potato dextrose broth media (Difco) containing 2% D(+)-glucose (Merck, Darmstadt, Germany) at 25–30 °C while shaking at 200 rpm overnight. The cultures were diluted with a dextrose media containing glucose to a concentration of approx. 4 × 10^5 spores/mL. Aliquots of the cultures (50 µL) were transferred to 96 well microtiter plates preloaded with the synthetic peptides (50 µL) in two-fold serial dilutions (256 to 1 µg/mL). Polymyxin B and CHX (both with concentrations ranging from 12.5 to 0.09 μg/mL) served as positive antibiotic controls. The microtiter plates containing the fungal spores and the test peptides were incubated at room temperature for 48 h and OD600 was recorded using a Synergy H1 Hybrid microplate reader system (BioTek, Winooski, VT, USA). MIC was defined as the lowest peptide concentration showing an optical density less than 10% of the negative (growth) control. All experiments were performed in triplicate.

[2] = system: B. subtilis (Bs, ATCC 23857); assay: microbe, parasite or virus in culture; format: cell-based, Bacillus subtilis; details: ATCC 23857, 24 h
Method: as §1

[3] = system: Gram-negative bacterial strains (E. coli and P. aeruginosa); assay: Antibacterial MIC assay, Gram-negative strains together (range or geometric mean); format: cell-based; details: Table S3; MIC >256 set to 256
Method: as §1

[4] = system: C. glutamicum (Cg, ATCC 13032); assay: microbe, parasite or virus in culture; format: cell-based, Corynebacterium glutamicum; details: ATCC 13032, 24 h
Method: as §1

Rhodotorula sp. (Rh) = assay: microbe, parasite or virus in culture; format: cell-based; details: 48 h
Method: as §2

[5] = system: C. albicans (Ca, ATCC 10231); assay: microbe, parasite or virus in culture; format: cell-based, Candida albicans; details: ATCC 10231, 48 h
Method: as §2

[6] = system: human red blood cells (RBC); assay: Haemolytic activity assay; format: cell-based; details: for Selectivity index (SI) G- / Selectivity index (SI) G+ / Selectivity index (SI) Fungi: Table S3, highest tested concentration used where EC50 above it; for Selectivity index (SI) G-: EC50/GM of Gram-negative strains; for Selectivity index (SI) G+: EC50/GM of Gram-positive strains; for Selectivity index (SI) Fungi: EC50/GM of fungi; for SI (selectivity index = EC50/GM): haemolytic EC50 over GM of MIC against all bacterial strains, Table 1
Method: The synthetized lipopeptides were screened for haemolytic activity against human red blood cells (RBC), in concentrations ranging from 500 to 3.9 μM, following a previously described protocol. In brief, haemolysis was determined using a heparinizied (10 IU/mL) fraction of freshly drawn human blood. A second fraction of blood, which was collected in test tubes containing ethylenediaminetetraacetic acid (EDTA, Vacutest, KIMA, Arzergrande, Italy), was used for determination of the hematocrit (hct). Plasma was removed from heparinized blood by washing three times with prewarmed phosphate-buffered saline (PBS) before being adjusted to a hematocrit of 4%. Peptides dissolved in dimethyl sulfoxide (DMSO) were further diluted with PBS to a final DMSO content of ≤1%. Triton X-100 (Sigma-Aldrich, St. Louis, MO, USA), used at a final concentration of 0.1%, served as a positive control for 100% haemolysis, whereas 1% DMSO in PBS buffer served as a negative control where no toxicity was detected. Duplicates of test solutions and erythrocytes, with 1% hct final concentration, were prepared in a 96-well polypropylene V-bottom plate (Nunc, Fischer scientific, Oslo, Norway). They were incubated under agitation at 37 °C and 800 rpm for 1 h. After centrifugation (5 min, 3000× g), 100 µL from each well were transferred to a flat-bottomed 96-well plate and absorbance was measured at 545 nm with a microplate reader (SpectraMax 190, Molecular Devices, San Jose, CA, USA). After subtracting PBS background, the percentage of haemolysis was calculated as the ratio of the absorbance in the peptide-treated and surfactant-treated samples. Three independent experiments were performed, and EC50 (the concentration giving 50% haemolysis) values are presented as averages.

A. pullulans (Ap) = assay: microbe, parasite or virus in culture; format: cell-based, Aurobasidium pollulans; details: 48 h
Method: as §2

[7] = system: Gram-positive bacterial strains; details: for GM of MIC G+: Table S3, MIC >256 set to 256
Method: as §1

[8] = system: S. epidermidis RP62A (Se, ATCC 35984); assay: microbe, parasite or virus in culture; format: cell-based, Staphylococcus epidermidis; details: ATCC 35984, 24 h
Method: as §1

[9] = system: S. aureus (Sa, ATCC 9144); assay: microbe, parasite or virus in culture; format: cell-based, Staphylococcus aureus; details: ATCC 9144, 24 h
Method: as §1

all bacterial strains = assay: Antibacterial MIC assay, all bacterial strains together (range or geometric mean); format: cell-based; details: for GM (geometric mean of the MIC values against all bacterial strains): Table 1, six bacterial strains; for GM of MIC Tot. bact.: Table S3, all bacterial test strains, MIC >256 set to 256
Method: The selectivity index (SI) of the peptides towards bacteria over eukaryotic cells was calculated using the geometric mean (GM) of the MIC values against all bacterial test strains, according to the method by Orlov et al.. The SI for each peptide was determined as the ratio of the RBC-EC50 value by the corresponding GM value. Larger SI values indicate greater selectivity for microbial cells. […] In general, the SI was higher against the Gram-positive bacteral strains than the Gram-negative strains. (Table S3). Overall, peptides displaying EC50 < 100 µg/mL were considered too haemolytic to be of interest for further exploration.
as §1

[10] = system: P. aeruginosa (Pa, ATCC 27853); assay: microbe, parasite or virus in culture; format: cell-based, Pseudomonas aeruginosa; details: ATCC 27853, 24 h
Method: as §1

Compound	Antimicrobial Activity (MIC) Gram − Ec (E. coli (Ec, ATCC 25922))	GM of MIC Fungi [1]	Antimicrobial Activity (MIC) Gram + Bs [2]	GM of MIC G- [3]	Antimicrobial Activity (MIC) Gram + Cg [4]	Antimicrobial Activity (MIC) Fungi Rh (Rhodotorula sp. (Rh))	Antimicrobial Activity (MIC) Fungi Ca [5]	Selectivity index (SI) G- [6]	Selectivity index (SI) G+ [6]	Selectivity index (SI) Fungi [6]	SI (selectivity index = EC50/GM) [6]	Antimicrobial Activity (MIC) Fungi Ap (A. pullulans (Ap))	GM of MIC G+ [7]	Antimicrobial Activity (MIC) Gram + Se [8]	Antimicrobial Activity (MIC) Gram + Sa [9]	GM (geometric mean of the MIC values against all bacterial strains) (all bacterial strains)	GM of MIC Tot. bact. (all bacterial strains)	Antimicrobial Activity (MIC) Gram − Pa [10]	RBC Tox. (EC50), haemolytic activity ([6]; human RBC, 1 h, 37 °C, concentration giving 50% haemolysis)	MIC against the Gram-positive bacterial strains ([7]; 2 h)
CCCCCCCCCCCC(=O)N[C@@H](CS)C(=O)NCC(=O)N[C@@H](CCCCN)C(=O)N[C@@H](CCCCN)C(=O)N[C@@H](Cc1c[nH]c2ccccc12)C(=O)N[C@@H](Cc1c[nH]c2ccccc12)C(=O)NCC(=O)N[C@@H](Cc1c[nH]c2ccccc12)C(=O)N[C@@H](CCCCN)C(=O)N[C@@H](CS)C(=O)N[C@@H](CCCCN)C(=O)N[C@@H](CC(C)C)C(N)=O [Peptide C12-Turg-2, C12- CGKKWWGWKC KL-NH2] (Lauroyl-CGKKWWGWKCKL-NH2)	16 µg/mL	40 µg/mL	8 µg/mL	23 µg/mL	16 µg/mL	32 µg/mL	64 µg/mL	2	5	1	4	32 µg/mL	11 µg/mL	8 µg/mL	16 µg/mL	14 µg/mL	14 µg/mL	32 µg/mL	–	–
CCCCCCCC(=O)N[C@@H](CS)C(=O)NCC(=O)N[C@@H](CCCNC(=N)N)C(=O)N[C@@H](CCCNC(=N)N)C(=O)N[C@@H](Cc1c[nH]c2ccccc12)C(=O)NCC(=O)N[C@@H](Cc1c[nH]c2ccccc12)C(=O)N[C@@H](Cc1c[nH]c2ccccc12)C(=O)N[C@@H](CCCNC(=N)N)C(=O)N[C@@H](CS)C(=O)N[C@@H](CCCNC(=N)N)C(=O)N[C@@H](CC(C)C)C(N)=O [Peptide C8-Turg-6, C8- CGRRWGWWRC RL-NH2] (Octanoyl-CGRRWGWWRCRL-NH2)	8 µg/mL	102 µg/mL	4 µg/mL	16 µg/mL	4 µg/mL	128 µg/mL	64 µg/mL	3	8	1	6	128 µg/mL	7 µg/mL	8 µg/mL	16 µg/mL	9 µg/mL	9 µg/mL	32 µg/mL	54 µg/mL	–
CCCCCCCCCC(=O)N[C@@H](CS)C(=O)NCC(=O)N[C@@H](CCCCN)C(=O)N[C@@H](CCCCN)C(=O)N[C@@H](Cc1c[nH]c2ccccc12)C(=O)N[C@@H](Cc1c[nH]c2ccccc12)C(=O)NCC(=O)N[C@@H](Cc1c[nH]c2ccccc12)C(=O)N[C@@H](CCCCN)C(=O)N[C@@H](CS)C(=O)N[C@@H](CCCCN)C(=O)N[C@@H](CC(C)C)C(N)=O [Peptide C10-Turg-2, C10- CGKKWWGWKC KL-NH2] (Decanoyl-CGKKWWGWKCKL-NH2)	8 µg/mL	40 µg/mL	8 µg/mL	11 µg/mL	4 µg/mL	32 µg/mL	64 µg/mL	6	10	2	8	32 µg/mL	7 µg/mL	8 µg/mL	8 µg/mL	8 µg/mL	8 µg/mL	16 µg/mL	–	4 to 8 µg/mL
